Read-outs that look alike come from different tables or passages of the source.
What was measured:
[1] = system: HeLa cells; assay: MTS cell proliferation and/or cytotoxicity assay; assay type: cell-based, Human
Procedure, shortened: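 HeLa cells seeded at 4,500 cells/well, exposed to compounds from day 1 for 3 days at 37 °C, 5% CO2. Viability by MTS/PMS (20:1) with 4 h incubation, absorbance at 490 nm. Values are concentrations giving 50% antiproliferative response.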

[2] = biological target: c-Myc template DNA (c-myc quadruplex); assay: Quadruplex binding / stop assay (Taq polymerase arrest, capillary electrophoresis)
From the text: A high throughput polymerase arrest assay has been developed. The assay comprises contacting a template nucleic acid, often DNA, with a primer, which also is often DNA; contacting the primer/template complex with a compound described herein (also referred to as a “test compound”); contacting the primer/template complex with a polymerase; and separating reaction products. The assay often includes the step of denaturing the primer/template complex mixture and then renaturing the complex, which often is carried out before a test molecule is added to the system. Multiple assays often are carried out using varying concentrations of a test compound, such that an IC50 value can be obtained, for example. The reaction products often include extended primers of different lengths.
Thus, the reaction mixture often includes at least two reaction products when a test compound interacts with a quadruplex structure in the template, one having a completely extended primer and one having an incompletely extended primer, and these two reaction products are separated. The products may be separated using any convenient separation method, such as mass spectrometry and in one embodiment, capillary electrophoresis.
In an embodiment, a primer oligonucleotide covalently linked to a fluorescent label is contacted with template DNA. The resulting complex is contacted with a test molecule and then contacted with a polymerase capable of extending the primer. The reaction products then are separated and detected by capillary electrophoresis. A longer primer sequence was used for practicing this embodiment as compared to embodiments where the primer includes no covalently-linked fluorophore or where capillary electrophoresis is not utilized for separation. Deoxynucleotides are added at any stage of the assay before the separation, often when the primer is contacted with the template DNA. The template DNA/primer complex often is denatured (e.g., by increasing the temperature of the system) and then renatured (e.g., by cooling the system) before a test compound is added).
The mixture was denatured at 95° C. for 5 minutes and, after cooling down to room temperature, was incubated at 37° C. for 15 minutes.
After cooling down to room temperature, 1 mM KCl and the test compound (various concentrations) were added and the mixture incubated for 15 minutes at room temperature. The primer extension was performed by adding 10 mM KCl and Taq DNA Polymerase (2.5 U/reaction, Promega) and incubating at 70° C. for 30 minutes. The reaction was stopped by adding 1 μl of the reaction mixture to 10 μl Hi-Di Formamide mixed and 0.25 μl LIZ120 size standard. Hi-Di Formamide and LIZ120 size standard were purchased from Applied Biosystems.
The partially extended quadruplex arrest product was between 61 or 62 bases long and the full-length extended product was 99 bases long. The products were separated and analyzed using capillary electrophoresis. Capillary electrophoresis was performed using an ABI PRISM 3100-Avant Genetic Analyzer.
Stop Assays. […] A fluorescently labeled primer DNA is then annealed to the 3′ end of the template DNA. A DNA polymerase such as Taq polymerase is then introduced to synthesize a complementary strand of DNA by extending from the fluorescently labeled primer. When the progress of the Taq polymerase is unhindered, it synthesizes a full-length copy of the template.
These products are visualized by capillary electrophoresis.

[3] = Homo sapiens, HeLa, 72 h, concentration at which 50% of antiproliferative cell response is seen, 3 days incubation, read-out: MTS Data Hella
[4] = read-out: Stop Data c-Myc μM, concentration at which 50% of the DNA was arrested (arrested:full-length 1:1)
[5] = Homo sapiens, HeLa, HeLa cells, MTS, read-out: Hela MTS
[6] = read-out: S DATA, Table 1D, stop assay data

| Compound | IC50 [1, 3] [nM] | IC50 [2, 4] [µM] | IC50 ([1]; concentration at which 50% of antiproliferative cell response is seen, 3 days incubation, read-out: MTS Data Hella) [nM] | IC50 [1, 5] [nM] | IC50 [2, 6] [µM] |
| --- | --- | --- | --- | --- | --- |
| O=C(NCCN1CCOCC1)c1cn2c3c(c(N4CC5CCCNC5C4)c(F)cc3c1=O)Oc1cc3ccccc3cc1-2 (centres unmarked) [compound 566] | 30 | 0.25 | – | – | – |
| O=C(NCCN1CCCC1)c1cn2c3cc4c(=O)c5ccccc5c(=O)c4cc3oc3c(NCCN4CCCC4)c(F)cc(c1=O)c32 [compound 568] | 4100 | 0.22 | – | – | – |
| CN(C)CCCCNc1c(F)cc2c(=O)c(C(=O)NCCC3CCCN3C)cn3c4cc5oc6cc([N+](=O)[O-])ccc6[nH]c5cc4oc1c23 (centres unmarked) [compound 569] | 7800 | 0.18 | – | – | – |
| CN1CCCC1CCNC(=O)c1cn2c3cc4oc5cc([N+](=O)[O-])ccc5[nH]c4cc3oc3c(NCCN4CCCC4)c(F)cc(c1=O)c32 (centres unmarked) [compound 570] | 6800 | 0.18 | – | – | – |
| CN1CCCC1CCNc1c(F)cc2c(=O)c(C(=O)NCCN3CCCC3)cn3c4cc5oc6cc([N+](=O)[O-])ccc6[nH]c5cc4oc1c23 (centres unmarked) [compound 571] | 4800 | 0.18 | – | – | – |
| CN1CCCC1CCNC(=O)c1cn2c3cc4oc5cc([N+](=O)[O-])ccc5[nH]c4cc3oc3c(NCCC4CCCN4C)c(F)cc(c1=O)c32 (centres unmarked) [compound 572] | 4800 | 0.18 | – | – | – |
| CN1CCN(CCCNC(=O)c2cn3c4c(c(N5CC[C@@H](NC(=O)CCNCCC6CCCN6C)C5)c(F)cc4c2=O)Oc2cc4c(cc2-3)oc2ccccc24)CC1 (some centres unmarked) [compound 573] | 4500 | 0.18 | – | – | – |
| CN(C)CCCCNC(=O)c1cn2c3cc4c(=O)c5ccccc5c(=O)c4cc3oc3c(NCCN4CCCC4)c(F)cc(c1=O)c32 [compound 574] | 4000 | 0.18 | – | – | – |
| CN1CCCC1CCNC(=O)c1cn2c3cc4c(cc3oc3c(NCCN5CCCC5)c(F)cc(c1=O)c32)c(=O)c1ccccc14 (centres unmarked) [compound 575] | 2100 | 0.18 | – | – | – |
| CN(C)CCCCNC(=O)c1cn2c3cc4c(cc3oc3c(NCCCCN(C)C)c(F)cc(c1=O)c32)c(=O)c1ccccc14 [compound 576] | 2100 | 0.18 | – | – | – |
| O=C(NCCN1CCCC1)c1cn2c3cc4c(cc3oc3c(NCCN5CCCC5)c(F)cc(c1=O)c32)c(=O)c1ccccc14 [compound 577] | 1100 | 0.18 | – | – | – |
| NC(N)=NCCCCNC(=O)c1cn2c3c(c(N4CC[C@@H](N)C4)c(F)cc3c1=O)Oc1cc3ccccc3cc1-2 [compound 578] | 580 | 0.18 | – | – | – |
| N[C@H]1CCN(c2c(F)cc3c(=O)c(C(=O)NCCN4CCOCC4)cn4c5cc6c(cc5oc2c34)c(=O)c2ccccc26)C1 [compound 579] | 490 | 0.18 | – | – | – |
| CN(C)CCCCNC(=O)c1cn2c3cc4c(cc3oc3c(N5CC[C@H](N)C5)c(F)cc(c1=O)c32)c(=O)c1ccccc14 [compound 580] | 300 | 0.18 | – | – | – |
| O=C(NCCN1CCCC1)c1cn2c3c(c(N4CC5CCCNC5C4)c(F)cc3c1=O)Oc1cc3ccccc3cc1-2 (centres unmarked) [compound 581] | – | 0.18 | 300 | – | – |
| CN1CCCC1CCNC(=O)c1cn2c3cc4c(cc3oc3c(N5CC[C@H](N)C5)c(F)cc(c1=O)c32)c(=O)c1ccccc14 (some centres unmarked) [compound 582] | 280 | 0.18 | – | – | – |
| N[C@H]1CCN(c2c(F)cc3c(=O)c(C(=O)NCCN4CCCC4)cn4c5cc6c(cc5oc2c34)c(=O)c2ccccc26)C1 [compound 583] | 250 | 0.18 | – | – | – |
| CN(C)CCCCNC(=O)c1cn2c3cc4c(cc3oc3c(NCCN5CCCC5)c(F)cc(c1=O)c32)c(=O)c1ccccc14 [compound 584] | 190 | 0.18 | – | – | – |
| O=C(NCCCN1CCOCC1)c1cn2c3cc4c(=O)c5ccccc5c(=O)c4cc3oc3c(NCCN4CCCC4)c(F)cc(c1=O)c32 [compound 591] | 3300 | 0.13 | – | – | – |
| CN1CCCC1CCNC(=O)c1cn2c3cc4c(=O)c5ccccc5c(=O)c4cc3oc3c(NCCN4CCCC4)c(F)cc(c1=O)c32 (centres unmarked) [compound 592] | 3800 | 0.1 | – | – | – |
| CN1CCN(CCCNC(=O)c2cn3c4c(c(N5CCC(N)C5)c(F)cc4c2=O)Oc2cc4c(cc2-3)oc2ccccc24)CC1 (centres unmarked) [compound 1467] | 350 | 0.25 | – | – | – |
| CN1CCCC1CCNC(=O)c1cn2c3c(c(NCCc4c[nH]cn4)c(F)cc3c1=O)Oc1cc3ccccc3cc1-2 (centres unmarked) [compound 1468] | 350 | 0.375 | – | – | – |
| CN1CCCC1CCNC(=O)c1cn2c3c(c(N4CCC(CCCC5CCNCC5)CC4)c(F)cc3c1=O)Oc1cc3ccccc3cc1-2 (centres unmarked) [compound 1494] | – | – | – | 310 | 0.375 |
| CN1CCCC1CCNC(=O)c1cn2c3c(c(N[C@@H]4CN5CCC4CC5)c(F)cc3c1=O)Oc1cc3ccccc3cc1-2 (some centres unmarked) [compound 1497] | – | – | – | 390 | 0.5 |
| CN1CCCC1CCNC(=O)c1cn2c3c(c(N4CCC(c5cnccn5)C4)c(F)cc3c1=O)Oc1cc3ccccc3cc1-2 (centres unmarked) [compound 1512] | – | – | – | 3100 | 0.78 |
| CN(C)CCCCNC(=O)c1cn2c3c(c(NCCN4CCCC4)ccc3c1=O)Oc1cc3ccccc3cc1-2 [compound 1520] | – | – | – | 200 | 0.375 |

| Compound | IC50 [1, 3] [nM] | IC50 [2, 4] [µM] | IC50 ([1]; concentration at which 50% of antiproliferative cell response is seen, 3 days incubation, read-out: MTS Data Hella) [nM] | IC50 [1, 5] [nM] | IC50 [2, 6] [µM] |
| --- | --- | --- | --- | --- | --- |
| NC1CCN(c2ccc3c(=O)c(C(=O)NCCCN4CCOCC4)cn4c3c2Oc2cc3ccccc3cc2-4)C1 (centres unmarked) [compound 1557] | – | – | – | 1500 | 0.75 |
| CC1(C)CC(NC(=O)c2cn3c4c(c(N5CCC(N)C5)ccc4c2=O)Oc2cc4ccccc4cc2-3)CC(C)(C)N1 (centres unmarked) [compound 1558] | – | – | – | 240 | 0.375 |
| CN(C)CCCCNC(=O)c1cn2c3c(c(N4CCC(N)C4)ccc3c1=O)Oc1cc3ccccc3cc1-2 (centres unmarked) [compound 1559] | – | – | – | 240 | 0.18 |
| O=C(NCCN1CCCC1)c1cn2c3c(c(N4CC5CCCNC5C4)c(F)cc3c1=O)Oc1cc3ccccc3cc1-2 (centres unmarked) [compound 1635] | – | – | – | 300 | 0.18 |
| CN1CCCC1CCNC(=O)c1cn2c3c(c(N4CC5CCCNC5C4)c(F)cc3c1=O)Oc1cc3ccccc3cc1-2 (centres unmarked) [compound 1636] | – | – | – | 150 | 0.375 |
| O=C(NCCCN1CCOCC1)c1cn2c3c(c(N4CC5CCCNC5C4)c(F)cc3c1=O)Oc1cc3ccccc3cc1-2 (centres unmarked) [compound 1637] | – | – | – | 100 | 0.375 |
| CN(C)CCCCNC(=O)c1cn2c3c(c(N4CC5CCCNC5C4)c(F)cc3c1=O)Oc1cc3ccccc3cc1-2 (centres unmarked) [compound 1639] | – | – | – | 100 | 0.375 |
| O=C(NCCN1CCOCC1)c1cn2c3c(c(N4CC5CCCNC5C4)c(F)cc3c1=O)Oc1cc3ccccc3cc1-2 (centres unmarked) [compound 1640] | – | – | – | 30 | 0.25 |
| CC1(C)CC(NC(=O)c2cn3c4c(c(N5CC6CCCNC6C5)c(F)cc4c2=O)Oc2cc4ccccc4cc2-3)CC(C)(C)N1 (centres unmarked) [compound 1642] | – | – | – | 180 | 0.5 |
| CN(C)CC(C)(C)CNC(=O)c1cn2c3c(c(N4CC5CCCNC5C4)c(F)cc3c1=O)Oc1cc3ccccc3cc1-2 (centres unmarked) [compound 1644] | – | – | – | 650 | 0.375 |
| CN1CCCC1CCNC(=O)c1cn2c3c(c(N4CCC(N)C4)c(F)cc3c1=O)Nc1cc3ccccc3cc1-2 (centres unmarked) [compound 1645] | – | – | – | 3300 | 0.62 |
| N=C(N)NCCNC(=O)c1cn2c3c(c(N4CC5CCCNC5C4)c(F)cc3c1=O)Oc1cc3ccccc3cc1-2 (centres unmarked) [compound 1646] | – | – | – | 400 | 0.64 |
| N=C(N)NCC1CCCC(CNC(=O)c2cn3c4c(c(N5CCC(N)C5)c(F)cc4c2=O)Oc2cc4ccccc4cc2-3)C1 (centres unmarked) [compound 1649] | – | – | – | 2200 | 0.37 |
| CN1CCCC1CCNC(=O)c1cn2c3c(c(NCCc4c[nH]cn4)c(F)cc3c1=O)Oc1cc3ccccc3cc1-2 (centres unmarked) [compound 1657] | – | – | – | 500 | 0.375 |
| CN1CCCC1CCNC(=O)c1cn2c3c(c(NCC4(O)CCCCC4)c(F)cc3c1=O)Oc1cc3ccccc3cc1-2 (centres unmarked) [compound 1665] | – | – | – | 240 | 0.75 |
| CN1CCCC1CCNC(=O)c1cn2c3c(c(NCC(O)c4ccccc4)c(F)cc3c1=O)Oc1cc3ccccc3cc1-2 (centres unmarked) [compound 1676] | – | – | – | 190 | 0.75 |
| CN1CCCC1CCNC(=O)c1cn2c3c(c(NCCc4ccc(O)c(O)c4)c(F)cc3c1=O)Oc1cc3ccccc3cc1-2 (centres unmarked) [compound 1680] | – | – | – | 1800 | 0.75 |
| CN1CCCC1CCNC(=O)c1cn2c3c(c(NCCc4ccc(O)cc4)c(F)cc3c1=O)Oc1cc3ccccc3cc1-2 (centres unmarked) [compound 1681] | – | – | – | 2100 | 0.75 |
| CN1CCCC1CCNC(=O)c1cn2c3c(c(NCCCN(CCO)CCO)c(F)cc3c1=O)Oc1cc3ccccc3cc1-2 (centres unmarked) [compound 1686] | – | – | – | 400 | 0.375 |
| CN(C)c1cccc(CNc2c(F)cc3c(=O)c(C(=O)NCCC4CCCN4C)cn4c3c2Oc2cc3ccccc3cc2-4)c1 (centres unmarked) [compound 1688] | – | – | – | 250 | 0.75 |
| CN1CCC(Nc2c(F)cc3c(=O)c(C(=O)NCCC4CCCN4C)cn4c3c2Oc2cc3ccccc3cc2-4)CC1 (centres unmarked) [compound 1690] | – | – | – | 310 | 0.75 |
| O=C(NCCN1CCCC1)c1cn2c3cc4c(cc3oc3c(N5CC6CCCNC6C5)c(F)cc(c1=O)c32)c(=O)c1ccccc14 (centres unmarked) [compound 1726] | – | – | – | 2600 | 0.125 |
| CCN(CC)CCCC(C)NC(=O)c1cn2c3c(c(N4CC5CCCNC5C4)c(F)cc3c1=O)Oc1cc3ccccc3cc1-2 (centres unmarked) [compound 1727] | – | – | – | 360 | 0.75 |
| O=C(NCCN1CCCC1)c1cn2c3c(c(N4CC5CCCNC5C4)ccc3c1=O)Oc1cc3ccccc3cc1-2 (centres unmarked) [compound 1732] | – | – | – | 200 | 0.375 |
| CN1CCC[C@H]1CCNC(=O)c1cn2c3c(c(N4CCC(c5cnccn5)C4)c(F)cc3c1=O)Oc1cc3ccccc3cc1-2 (some centres unmarked) [compound 1742] | – | – | – | 3300 | 0.85 |
| CN1CCCC1CCNC(=O)c1cn2c3c(c(N)c(F)cc3c1=O)Oc1c-2ccc2ccccc12 (centres unmarked) [compound 1763] | – | – | – | 3800 | 1.5 |

— patent US7507727B2, “Substituted quinobenzoxazine analogs and methods of using thereof” (Cylene Pharmaceuticals, Inc., priority 2003, dated 2009)
